Reference: US20220411811A1, “SYNTHETIC TOOLKIT FOR PLANT TRANSFORMATION” (priority 2021, published 2022)

Tested on: A. tumefaciens NTL4
Format: cell-based, Agrobacterium tumefaciens
Conditions: for highest expression level (green fluorescence intensity, sfgfp reporter): highest induction concentration 10^3 μM; for basal expression level (green fluorescence intensity, sfgfp reporter): lowest induction concentration 10^−3 μM
Description: GFP measurement. An inoculum of A. tumefaciens was grown overnight to stationary phase and then transferred to fresh media at a 1:100 dilution. The new inocula were added with inducers to a final concentration of 1×10^−3 to 1×10^3 μmol/ml when their optical density at 600 nm (OD600) reached 0.5. After 6 h of incubation, cells were collected and resuspended in 1×PBS buffer. Then 100 μL of suitably diluted cultures were added into 96-well microtiter plates. OD600 and relative green fluorescence were measured by a BioTek® microplate reader H1. Congo red plate assay. The dye was dissolved in ddH2O at 20 mg ml^−1 and passed through 0.2 μm filters immediately. Four ml of filtered Congo Red was added per L (final concentration: 80 μg/ml) to generate LB-CR agar medium. The overnight cultured cultures were diluted to an OD600 of 1.0. 10 μl cultures were plated on LB-CR agar with appropriate antibiotics, followed by incubation at 30° C. for 24 hours.
A reliable induction system is required to achieve precise control of gene expression. […] An ori from the broad host-range plasmid pBBR1, which propagates in both E. coli and A. tumefaciens, was utilized for the origin of replication (Szpirer et al., J Bacteriol. 183:2101-2110, 2001). To evaluate the performance of these inducible systems, a green fluorescence protein gene (sfgfp) was utilized as a reporter gene, and placed under the control of the corresponding inducible promoters, Ptac, Pcym, Pvan, PBAD, Pug and Psal, respectively. The repressor genes of the inducible systems (lacI, cymR, vanR, araE, ttgR and nahR) were driven by a common constitutive promoter (Pcon). The resulting inducible “expression circuits” were transformed into A. tumefaciens NTL4.
To evaluate these induction systems, green fluorescence intensities of cells transformed with the plasmids were measured at various concentrations of inducers, ranging from 10^−3 to 10^3 μM.

SMILES	highest expression level (green fluorescence intensity, sfgfp reporter)	basal expression level (green fluorescence intensity, sfgfp reporter)
O=C[C@@H](O)[C@H](O)[C@H](O)CO [Ara, arabinose]	1.8×10^3	5.5×10^2
CC(C)c1ccc(C(=O)O)cc1 [Cum, cumic acid]	3×10^4	1.4×10^2
CC(C)S[C@@H]1O[C@H](CO)[C@H](O)[C@H](O)[C@H]1O [IPTG, β-d-1-thiogalactopyranoside]	5.2×10^5	6.6×10^4
O=C1C[C@@H](c2ccc(O)cc2)Oc2cc(O)cc(O)c21 [Nar, naringenin]	1.2×10^4	1.8×10^2
COc1cc(C(=O)O)ccc1O [Van, vanillic acid]	7.7×10^4	3.1×10^2
